Assay results taken from patent US9012443B2 (Amgen Inc., priority 2011, dated 2015).

Target: Nav 1.7 (Homo sapiens (Human), UniProt Q15858)
Experiment: Nav 1.7 in vitro PX assay (PatchXpress whole cell voltage clamp)
Type: cell-based
Conditions: 293 cells, human Nav1.7, partially inactivated state; read-out: Nav1.7 PX IC50 IP
Description: Nav 1.7 In Vitro PX Assay
293 cells stably transfected with human Nav1.7 were recorded in whole cell voltage clamp mode with the PatchXpress automated electrophysiology system (Molecular Devices, LLC, Sunnyvale, Calif.). Compound effects were measured on a partially inactivated state of the sodium channel. Cells were clamped to a holding potential yielding 20 to 50% inactivation. To elicit sodium current, channels were activated by pulsing to −10 mV for 20 msec. […] A single concentration of test compound was applied to cells for a duration of 3 minutes. Peak sodium current was measured at the end of the compound addition period to determine percent inhibition. Three to five cells were tested per concentration, and IC50 curves were fitted to percent inhibition as a function of concentration.

Nav 1.7, sequence (Q15858 whole entry): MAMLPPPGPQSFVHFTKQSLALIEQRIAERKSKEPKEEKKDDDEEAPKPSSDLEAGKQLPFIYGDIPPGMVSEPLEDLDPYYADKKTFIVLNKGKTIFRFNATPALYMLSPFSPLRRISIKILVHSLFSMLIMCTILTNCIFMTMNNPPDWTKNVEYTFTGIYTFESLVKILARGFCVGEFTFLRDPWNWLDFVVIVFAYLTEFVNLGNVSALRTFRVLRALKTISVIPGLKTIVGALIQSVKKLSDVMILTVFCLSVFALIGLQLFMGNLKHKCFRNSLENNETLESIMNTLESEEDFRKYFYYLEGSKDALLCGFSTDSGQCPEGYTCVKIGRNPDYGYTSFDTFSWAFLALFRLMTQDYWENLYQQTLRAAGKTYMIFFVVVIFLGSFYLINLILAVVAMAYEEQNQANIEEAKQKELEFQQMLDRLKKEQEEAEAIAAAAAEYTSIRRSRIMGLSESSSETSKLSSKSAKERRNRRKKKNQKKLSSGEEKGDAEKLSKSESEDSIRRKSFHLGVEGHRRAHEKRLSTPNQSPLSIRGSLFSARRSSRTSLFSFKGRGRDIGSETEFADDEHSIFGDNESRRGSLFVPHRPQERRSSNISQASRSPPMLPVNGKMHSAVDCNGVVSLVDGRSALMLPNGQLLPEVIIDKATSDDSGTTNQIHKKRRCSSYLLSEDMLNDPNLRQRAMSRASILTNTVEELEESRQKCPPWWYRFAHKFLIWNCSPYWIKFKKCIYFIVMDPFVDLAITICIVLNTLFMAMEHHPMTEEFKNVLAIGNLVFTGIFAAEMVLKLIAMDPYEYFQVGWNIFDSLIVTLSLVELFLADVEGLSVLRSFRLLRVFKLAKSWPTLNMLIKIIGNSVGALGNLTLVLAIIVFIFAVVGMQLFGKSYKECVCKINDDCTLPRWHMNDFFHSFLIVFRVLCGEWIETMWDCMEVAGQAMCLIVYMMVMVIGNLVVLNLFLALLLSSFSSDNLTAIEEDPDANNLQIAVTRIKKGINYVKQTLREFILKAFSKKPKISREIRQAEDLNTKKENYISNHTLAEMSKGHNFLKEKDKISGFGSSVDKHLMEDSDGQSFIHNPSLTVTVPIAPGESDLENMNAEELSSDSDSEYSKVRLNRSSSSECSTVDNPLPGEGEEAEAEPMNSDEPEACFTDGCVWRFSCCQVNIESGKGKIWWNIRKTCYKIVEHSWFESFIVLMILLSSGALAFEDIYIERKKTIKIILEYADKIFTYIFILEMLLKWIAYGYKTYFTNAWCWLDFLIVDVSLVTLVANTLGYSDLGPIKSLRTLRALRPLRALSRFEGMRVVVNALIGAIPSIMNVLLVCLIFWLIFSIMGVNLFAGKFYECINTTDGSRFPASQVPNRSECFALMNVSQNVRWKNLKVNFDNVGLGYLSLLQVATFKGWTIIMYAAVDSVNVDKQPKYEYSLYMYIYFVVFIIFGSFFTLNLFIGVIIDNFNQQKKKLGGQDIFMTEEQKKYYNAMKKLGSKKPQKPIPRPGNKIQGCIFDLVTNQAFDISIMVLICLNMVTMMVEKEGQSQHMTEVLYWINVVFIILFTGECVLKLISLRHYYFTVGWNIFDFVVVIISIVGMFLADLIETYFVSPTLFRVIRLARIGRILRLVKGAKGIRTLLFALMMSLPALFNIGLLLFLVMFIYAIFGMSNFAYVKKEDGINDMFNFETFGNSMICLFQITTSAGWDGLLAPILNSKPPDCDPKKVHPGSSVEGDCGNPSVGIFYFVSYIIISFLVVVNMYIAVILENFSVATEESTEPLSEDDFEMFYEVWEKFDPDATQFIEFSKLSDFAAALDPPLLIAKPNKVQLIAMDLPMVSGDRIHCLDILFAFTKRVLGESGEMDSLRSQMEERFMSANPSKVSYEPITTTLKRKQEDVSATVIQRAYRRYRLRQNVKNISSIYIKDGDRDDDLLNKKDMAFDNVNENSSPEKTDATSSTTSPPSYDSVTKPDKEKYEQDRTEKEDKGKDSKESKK

Row | SMILES | IC50 [nM]
1 | COc1ncc(C(F)(F)F)cc1-c1nccc2cc(S(=O)(=O)Nc3nccs3)ccc12 [Example 409, 1-(2-METHOXY-5-(TRIFLUOROMETHYL)PYRIDIN-3-YL)-N-(THIAZOL-2-YL)ISOQUINOLINE-6-SULFONAMIDE] | 690
2 | COc1cc(F)ccc1-c1cncc2cc(S(=O)(=O)Nc3nccs3)ccc12 [Example 290, 4-(4-FLUORO-2-METHOXYPHENYL)-N-(THIAZOL-2-YL)ISOQUINOLINE-7-SULFONAMIDE] | 600
3 | COc1cc(C(F)(F)F)ccc1-c1nccc2cc(S(=O)(=O)Nc3ncc(F)cn3)ccc12 [Example 426] | 2490
4 | Cc1cc(Cl)ccc1-c1nccc2cc(S(=O)(=O)Nc3ccncn3)ccc12 [Example 357] | 1850
5 | COc1cc(C(F)(F)F)ccc1-c1nc(C)nc2cc(S(=O)(=O)Nc3ccncn3)ccc12 [Example 518, 4-(2-METHOXY-4-(TRIFLUOROMETHYL)PHENYL)-2-METHYL-N-(PYRIMIDIN-4-YL)QUINAZOLINE-7-SULFONAMIDE] | 2600
6 | COc1cc(-c2nccs2)ccc1-c1nccc2cc(S(=O)(=O)Nc3ccncn3)ccc12 [Example 456, 1-(2-METHOXY-4-(THIAZOL-2-YL)PHENYL)-N-(PYRIMIDIN-4-YL)ISOQUINOLINE-6-SULFONAMIDE] | 4700
7 | COc1cc(-c2cccc(F)c2)c(Cl)cc1-c1nccc2cc(S(=O)(=O)Nc3cnsn3)ccc12 [Example 334, 1-(2-CHLORO-3′-FLUORO-5-METHOXY-[1,1′-BIPHENYL]-4-YL)-N-(1,2,5-THIADIAZOL-3-YL)ISOQUINOLINE-6-SULFONAMIDE] | 109
8 | COc1ccccc1-c1c(Br)cnc2cc(S(=O)(=O)Nc3nccs3)ccc12 [Example 325, 3-BROMO-4-(2-METHOXYPHENYL)-N-(THIAZOL-2-YL)QUINOLINE-7-SULFONAMIDE] | 5110
9 | COc1cc(C(F)(F)F)ccc1-c1nccc2cc(S(=O)(=O)Nc3cocn3)ccc12 [Example 440, 1-(2-METHOXY-4-(TRIFLUOROMETHYL)PHENYL)-N-(OXAZOL-4-YL)ISOQUINOLINE-6-SULFONAMIDE] | 4100
10 | COc1ncccc1-c1nccc2cc(S(=O)(=O)Nc3nccs3)ccc12 [Example 407, 1-(2-METHOXYPYRIDIN-3-YL)-N-(THIAZOL-2-YL)ISOQUINOLINE-6-SULFONAMIDE] | 4970
11 | COc1cc(C(F)F)c(OC)cc1-c1nccc2cc(S(=O)(=O)Nc3ccncn3)ccc12 [Example 453, 1-(4-(DIFLUOROMETHYL)-2,5-DIMETHOXYPHENYL)-N-(PYRIMIDIN-4-YL)ISOQUINOLINE-6-SULFONAMIDE] | 4880
12 | COc1ccc(-c2ccc(-c3nccc4cc(S(=O)(=O)Nc5ccncn5)ccc34)c(OC)c2)cn1 [Example 483, 1-(2-METHOXY-4-(6-METHOXYPYRIDIN-3-YL)PHENYL)-N-(PYRIMIDIN-4-YL)ISOQUINOLINE-6-SULFONAMIDE] | 1400
13 | COc1cc(-c2cncc(F)c2)ccc1-c1nccc2cc(S(=O)(=O)Nc3ccncn3)ccc12 [Example 475, 1-(4-(5-FLUOROPYRIDIN-3-YL)-2-METHOXYPHENYL)-N-(PYRIMIDIN-4-YL)ISOQUINOLINE-6-SULFONAMIDE] | 1880
14 | COc1cc(F)ccc1-c1ncc(O)c2cc(S(=O)(=O)Nc3nccs3)ccc12 [Example 233, 1-(4-FLUORO-2-METHOXYPHENYL)-4-HYDROXY-N-(THIAZOL-2-YL)ISOQUINOLINE-6-SULFONAMIDE 2,2,2-TRIFLUOROACETATE] | 510
15 | N#CC(F)Oc1cc(F)ccc1-c1nccc2cc(S(=O)(=O)Nc3nccs3)ccc12 (stereo not shown) [Example 416, 1-(2-(CYANOFLUOROMETHOXY)-4-FLUOROPHENYL)-N-(THIAZOL-2-YL)ISOQUINOLINE-6-SULFONAMIDE] | 1220
16 | COc1cc(C(F)F)c(Cl)cc1-c1nccc2cc(S(=O)(=O)Nc3ccncn3)ccc12 [Example 457, 1-(5-CHLORO-4-(DIFLUOROMETHYL)-2-METHOXYPHENYL)-N-(PYRIMIDIN-4-YL)ISOQUINOLINE-6-SULFONAMIDE] | 828
